The text below walks through data of PMC9169614, “Decrypting a cryptic allosteric pocket in H. pylori glutamate racemase” (Communications Chemistry, 2021).

One data set deals with H. pylori GR. The arrangement: method as in earlier work. The conditions noted are these: ref 8 (Lundqvist et al.); cited from earlier work.
Data set [1] concerns the target T1, H. pylori glutamate racemase (GR) (Helicobacter pylori, UniProt Q9ZLT0).
T1 construct: made in house; host or cells: E. coli BL21 (DE3) pLysS, co-expressed with GroEL/ES
Briefly: Surface plasmon resonance (SPR) binding to immobilized GR. The conditions noted are these: 1:1 Langmuir binding model, absence of substrate D-Glu, 25 °C, 500-7.81 µM dilution series.
Description: We first evaluated the binding affinity of these compounds to H. pylori GR by Surface Plasmon Resonance (SPR). A combination of amine coupling and HisCapture was used to immobilize the protein on the surface of the SPR biosensor. Compounds were injected onto the sensor in increasing concentrations using a dilution series ranging from 500 µM to 7.81 µM (7 concentrations).
Experiments were performed using a SensiQ Pioneer SPR. The biosensor chip was first equilibrated with SPR running buffer (50 mM Tris-HCl, 100 mM NaCl, TCEP, 1% v/v TWEEN, pH 8.0), then the surface of the biosensor chip was seasoned by injecting 200 μL 50 mM NaOH at 40 μL/min, 200 μL 0.1% v/v SDS at 40 μL/min, and 200 μL 10 mM HCl at 40 μL/min in the test and reference biosensor chip flow channels. This process of seasoning was repeated twice. All buffers and solutions were filter sterilized with 0.22-μm buffer filters before using on the SPR instrument. After seasoning, the lines were primed three times with SPR buffer. […]
H. pylori GR was immobilized to the biosensor using a HisCapture couple method detailed above. […] All sensograms were analyzed using the program Qdat (2.6.3.0) and it fitted to a model of simple binding of 1:1 Langmuir binding model for all virtual hits. […]

Data set [2] has as its target T1, H. pylori glutamate racemase (GR). Briefly: Coupled-enzyme assay (L-glutamate dehydrogenase/diaphorase) of D- to L-glutamate racemization. The format is biochemical. The following applies: 1.25 mM D-Glu, 2 µM GR, 50 mM TRIS pH 8, 5% DMSO; mean ± SE n = 3 for NP-020560 and Compound A, other hits single repeat.
Description: The D- to L-glutamate racemization activities of H. pylori GR was assayed through a previously established coupled-enzyme method, utilizing L-glutamate dehydrogenase and diaphorase[40]. […] The assay consists of 1.25 mM D-Glu, 2.51 mM ADP, 5 mM NAD, 0.506 mM INT, 5 Units of L-GDH, 0.4 units of diaphorase and 2 µM GR in 50 mM TRIS, pH = 8. Compound stocks solutions of varying concentrations (100 µM–50 mM) were made in DMSO and introduced in the assay vials. The final DMSO concentration after addition of compounds in the assay was 5% v/v. […] Absorption for the reduced iodonitrotetrazolium was collected by measuring absorbance at 500 nm at 1 min interval for 60 min on Cary 300 UV-VIS Spectrophotometer from Varian (Palo Alto, CA). Absorbance for each compound concentration at every time point were normalized to absorbance for blank, followed by calculating slopes for each concentration. The calculated slopes with the respective log (inhibitor concertation) were fitted to log(inhibitor) vs response (three parameters) model within ‘Nonlinear Regression-Dose Response Inhibition’ in GraphPad Prism version 8.4.3. The program provides output as IC50 and LogIC50 along with respective standard errors, and for ease of expression, we report inhibition data as IC50 (mean ± SE).
Details of data set [3]: method as in PMID 31876113. The following applies: carboxylic acid form (α-carboxylate protonated by Cys181); cited from earlier work.

T1 sequence (Q9ZLT0 whole entry): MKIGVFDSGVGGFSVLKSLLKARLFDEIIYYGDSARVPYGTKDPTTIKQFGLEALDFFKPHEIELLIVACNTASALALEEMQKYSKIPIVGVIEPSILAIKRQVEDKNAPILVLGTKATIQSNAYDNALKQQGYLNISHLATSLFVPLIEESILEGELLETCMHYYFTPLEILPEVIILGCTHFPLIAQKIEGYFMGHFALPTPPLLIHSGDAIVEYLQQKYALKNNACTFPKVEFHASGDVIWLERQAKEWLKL

Take `CC(C)Cn1c(=O)n(C)c(=O)c2c(-c3ccncc3)n(Cc3cccc4ccccc34)nc21` [Compound A]: the IC50 in the data set with H. pylori GR was 5 µM. Compound `Cc1cc2c(c(-c3c(O)c(C)cc4c3C(=O)c3c(O)cc(O)cc3C4=O)c1O)C(=O)c1c(O)cc(O)cc1C2=O` [NP-020560] showed a Kd in data set [1] of 54.7 ± 0.3 µM. Also, the IC50 in data set [2] came to 6.6 ± 3.1 µM. For `N[C@H](CCC(=O)O)C(=O)O` [D-Glu, D-glutamate], the “pKa of α-carbon of D-Glu substrate” value in data set [3] is on record as 14.4.
